Reference: patent publication US10414832B2, “Derivatives of sulfated polysaccharides, method of preparation, modification and use thereof” (Contipro a.s., priority 2015, dated 2019)

Legend:
Solubility in DMSO = format: physicochemical; details: lyophilized acid form
Description: A 1% solution of chondroitin sulfate (500 mg, 1.1 mmol) in distilled water was prepared. The solution was cooled to 5° C. and 1.2 ml of Amberlite IR 120 Na(H^+) catex was added. The reaction mixture was stirred for 24 h at 5° C. The catex was filtered off, the product was frozen and lyophilized. Its solubility in DSMO was tested and found satisfactory.

[1] = purchased from Sigma Aldrich; cited from earlier work
3T3 fibroblasts = test: Viability tests of 3T3 fibroblasts (MTT method); format: cell-based; details: 3T3 cells, 10, 100, 500 and 1000 μg·mL^−1, 0, 24, 48, 72 hours
Description: FIG. 3 illustrates the results of the cell viability tests of 3T3 fibroblasts in α,β-unsaturated aldehyde of chondroitin sulfate (Mw=4×10^4 g/mol, DS=20%). The activation vs inhibition curve, expressed in %, with respect to the control in time T=0 h (100%). Evaluation by means of MTT method, six repetitions.
The tested substance, α,β-unsaturated aldehyde of chondroitin sulfate (DS=20%, Mw=40 kDa), was dissolved in a complete 3T3 medium. The solution was filtered via a 0.22 μm filter. The final test concentrations of the tested solution were 10, 100, 500, and 1000 μg·mL^−1. 3T3 cells of the density of 3000 cells per a well were inoculated into 96-well plates. Before the treatment, the cells were cultured for 24 hours in a complete medium. The cell viability was evaluated by spectrophotometry by means of 3-[4,5-dimethylthiazole-2-yl]-2,5-diphenyl tetrazolium bromide (MTT method) in the intervals of 0, 24, 48, 72 hours. The whole experiment was supplemented with a set of non-treated controls and blank samples. The measured optical density data were converted into percentage formulation related to the control in the time T0 hours (the ratio of the optical density of the treated sample with respect to the optical density of the non-treated control T0, multiplied by 100) and the standard error of the mean (SEM) was calculated. The results of the test are graphically presented at FIG. 3.

| Substance | solubility in water [1] [µg/mL] | also measured |
| --- | --- | --- |
| Acid Form of Chondroitin Sulfate [Example 26] |  | solubility in DSMO (Solubility in DMSO): satisfactory |
| Lambda carrageenan | 10000 |  |
| sodium salt of dermatan sulfate | 5000 |  |
| α,β-unsaturated aldehyde of chondroitin sulfate |  | cytotoxicity (cell viability of 3T3 fibroblasts) (3T3 fibroblasts): not cytotoxic |
